{
  "source": "patent US10945968B2",
  "about": "“Memantine transdermal delivery systems” (Corium, Inc., priority 2016, dated 2021)",
  "origin": "cited, not measured here",
  "details": "DRUGBANK Accession No. DB01043",
  "data": [
    {"smiles": "C[C@]12CC3C[C@](C)(C1)C[C@@](N)(C3)C2", "note": "[Memantine, 3,5-dimethyladamantan-1-amine]", "values": [
      {"measurement": "Log P reported range", "value": "3.31-2.07"}
    ]}
  ]
}
